Consider two compounds from patent US20100316712A1, “PHARMACEUTICAL COMPOSITIONS FOR TREATMENT OF PARKINSON'S DISEASE AND RELATED DISORDERS” (Combinatorx, Incorporated, priority 2006, published 2010).

The structures appear in SMILES notation. Where two headings read alike, the source gives them in different places.

A short description of series [1]: Plasma carbidopa and levodopa after SINEMET CR alone or after carbidopa pre-dosing. In kind it is in vivo. As to conditions: fed beagle dogs; for AUC(0-t): beagle, dog, plasma, po, read-out: AUC0-24; for increase in AUC0-24 / increase in peak concentrations: carbidopa pre-dosing + SINEMET CR vs SINEMET CR alone. As to the method: The following experiment was designed to determine if effective levodopa concentration in vivo is increased at the presence of a higher ratio of carbidopa to levodopa (as compared to that used in conventional therapy).
SINEMET® CR tablets (50 mg carbidopa/200 mg levodopa) were administered to fed beagle dogs either alone or after pre-dosing with 12.5 mg and 25 mg of carbidopa, and plasma concentrations of carbidopa and levodopa were measured over time (data not shown).

For series [2] the following is noted: in vivo; cited from earlier work.
The conditions of series [3]: doses of 400 mg per day; cited from earlier work.
Setting [4] is: Carbidopa 12.5 mg pre-dose + SINEMET CR.
[5] abbreviates: Carbidopa 25 mg pre-dose + SINEMET CR.
The mark [6] stands for this setting: SINEMET CR (50 mg carbidopa/200 mg levodopa) alone.

Turning to `C[C@@](Cc1ccc(O)c(O)c1)(NN)C(=O)O` [Carbidopa], the results for the AUC(0-t) in series [1] (setting [4]), in series [1] (setting [5]) and in series [1] (setting [6]) were 592 ± 303 ng·h/mL, 956 ± 534 ng·h/mL and 215 ± 43 ng·h/mL, respectively. Also, in series [1], the “increase in AUC0-24” value is roughly 100%. For the same compound, in series [1], the “increase in peak concentrations” value is recorded as roughly 100%. Further, in series [2], the “fraction of an administered dose absorbed” value is given as “About 70%”. Also, the adverse effects result in series [3] is reported as “fails to elicit adverse effects”.
As for `N[C@@H](Cc1ccc(O)c(O)c1)C(=O)O` [Levodopa, L-3,4-dihydroxyphenylalanine], the figures for the AUC(0-t) in series [1] (setting [4]), in series [1] (setting [5]) and in series [1] (setting [6]) were 8640 ± 2060 ng·h/mL, 7000 ± 3830 ng·h/mL and 3900 ± 298 ng·h/mL, respectively. For the same compound, in series [1], the “increase in AUC0-24” value was roughly 100%. Also, in series [1], the “increase in peak concentrations” value is reported as roughly 100%.
